The values that follow come from patent US9458181B2, “Cathepsin cysteine protease inhibitors” (Merck Sharp & Dohme Corp., priority 2013, dated 2016).

One assay deals with human cathepsin K (UniProt P43236). The assay is described as follows: Cathepsin K Assay (hrbCat K). It counts as biochemical. To be noted: human cathepsin K 0.4 nM, Z-Leu-Arg-AMC 8 μM, pH 5.5, 15 min preincubation; read-out: hrbCat K IP. As to the method: Cathepsin K Assay (hrbCat K)
(§1) Serial dilutions (⅓) from 500 μM down to 0.025 μM of test compounds were prepared in dimethyl sulfoxide (DMSO). Then 0.5 μL of DMSO from each dilution were added to 18.75 μL of assay buffer (MES, 50 mM (pH 5.5); EDTA, 2.5 mM; DTT, 2.5 mM and 10% DMSO) containing human cathepsin K (0.4 nM) in assay buffer solution. The assay solutions were mixed for 5-10 seconds on a shaker plate and incubated for 15 minutes at room temperature. Z-Leu-Arg-AMC (8 μM) in 6.25 μL of assay buffer was added to the assay solutions. Hydrolysis of the coumarin leaving group (AMC) was followed by spectrofluorometry (Exλ=360 nm; Emλ=460 nm) for 30 minutes. Percent of inhibition were calculated by fitting experimental values to standard mathematical model for dose response curve.

The next assay addresses T1, human cathepsin F (Homo sapiens, UniProt Q9UBX1).
T1 sequence (Q9UBX1 271-484): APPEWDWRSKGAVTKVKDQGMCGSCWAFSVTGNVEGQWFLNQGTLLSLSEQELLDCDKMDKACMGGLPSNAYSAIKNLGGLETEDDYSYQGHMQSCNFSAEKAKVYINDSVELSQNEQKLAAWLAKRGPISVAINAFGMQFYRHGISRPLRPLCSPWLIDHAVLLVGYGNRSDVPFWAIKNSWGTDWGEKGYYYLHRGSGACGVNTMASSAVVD
The experiment in a line: Cathepsin F assay (hCat F). To be noted: human cathepsin F 10 nM, Z-Phe-Arg-AMC 8 μM, pH 5.5, 15 min preincubation; read-out: hCat F IP. It counts as biochemical. As to the method:
Cathepsin F assay (hCat F)
as §1, with “F (10” for “K (0.4”, “Z-Phe-Arg-AMC” for “Z-Leu-Arg-AMC”, “(Exp, =360” for “(Exλ=360”, “EmX=460” for “Emλ=460”, “20” for “30”

SMILES strings stand for the structures.

As for `N#CC1(NC(=O)[C@@H]2CCCC[C@H]2c2oc(C3CCC(F)(F)C3)nc2-c2ccc(N3CCS(=O)(=O)CC3)cc2)CC1` (mixture of isomers) [Example 114, (1R,2R)-N-(1-cyanocyclopropyl)-2-(2-((R and S)-3,3-difluorocyclopentyl)-4-(4-(1,1-dioxidothiomorpholino)phenyl)oxazol-5-yl)cyclohexanecarboxamide], the IC50 on human cathepsin K stood at 1.7 nM; at human cathepsin F, 1520 nM.

Consider `COC(c1ccccc1)(c1nc(-c2ccc(N3CCS(=O)(=O)CC3)cc2)c([C@@H]2CCCC[C@H]2C(=O)NC2(C#N)CC2)o1)C(F)(F)F` (mixture of isomers) [Example 116, (1R,2R)-N-(1-cyanocyclopropyl)-2-(4-(4-(1,1-dioxidothiomorpholino)phenyl)-2-((R and S)-2,2,2-trifluoro-1-methoxy-1-phenylethyl)oxazol-5-yl)cyclohexanecarboxamide], for which the IC50 is 1.38 nM at human cathepsin K and 1210 nM at human cathepsin F.

With `COC1CC(c2nc(-c3ccc(N4CCS(=O)(=O)CC4)cc3)c([C@@H]3CCCC[C@H]3C(=O)NC3(C#N)CC3)o2)C1` (mixture of isomers) [Example 117, (1R,2R)-N-(1-cyanocyclopropyl)-2-(4-(4-(1,1-dioxidothiomorpholino)phenyl)-2-((1R,3R and 1S,3S)-3-methoxycyclobutyl)oxazol-5-yl)cyclohexanecarboxamide], the IC50 at human cathepsin K stood at 1.46 nM; on human cathepsin F it was 2240 nM.

For `N#CC1(NC(=O)[C@@H]2CCCC[C@H]2c2oc(C3CC4CC4C3)nc2-c2ccc(N3CCS(=O)(=O)CC3)cc2)CC1` (mixture of isomers) [Example 118, (1R,2R)-2-(2-((1R,3R,5S and 1R,3S,5S)-bicyclo[3.1.0]hexan-3-yl)-4-(4-(1,1-dioxidothiomorpholino)phenyl)oxazol-5-yl)-N-(1-cyanocyclopropyl) cyclohexanecarboxamide], the results for the IC50 on human cathepsin K and at human cathepsin F were 0.85 nM and 767 nM, respectively.

Turning to `N#CC1(NC(=O)[C@@H]2CC(C(F)F)CC[C@H]2c2oc(-c3ccc(F)cc3)nc2-c2ccc(N3CCS(=O)(=O)CC3)cc2)CC1` (mixture of isomers) [Example 138, (1R,2R,5R and 1R,2R,5S)-N-(1-cyanocyclopropyl)-5-(difluoromethyl)-2-(4-(4-(1,1-dioxidothiomorpholino)phenyl)-2-(4-fluorophenyl)oxazol-5-yl)cyclohexanecarboxamide], the results for the IC50 on human cathepsin K and at human cathepsin F were 12.4 nM and 151 nM, respectively.

Regarding `N#CC(NC(=O)[C@@H]1CCCC[C@H]1c1oc(-c2ccc(F)cc2)nc1-c1ccc(N2CCS(=O)(=O)CC2)cc1)C(F)(F)F` (mixture of isomers) [Example 149, (1R,2R)-N-((S and R)-1-cyano-2,2,2-trifluoroethyl)-2-(4-(4-(1,1-dioxidothiomorpholino)phenyl)-2-(4-fluorophenyl)oxazol-5-yl)cyclohexanecarboxamide], the IC50 on human cathepsin K is 1.3 nM; on human cathepsin F it was 53 nM.

Turning to `N#CC1(NC(=O)[C@@H]2CC3CC3C[C@H]2c2oc(-c3ccc(F)cn3)nc2-c2ccc(N3CCS(=O)(=O)CC3)cc2)CC1` (single isomer, unassigned) [Example 8, (1S,3R,4R,6R or 1R,3R,4R,6S)-N-(1-Cyanocyclopropyl)-4-(4-(4-(1,1-dioxidothiomorpholino)phenyl)-2-(5-fluoropyridin-2-yl)oxazol-5-yl)bicyclo[4.1.0]heptane-3-carboxamidc], the IC50 on human cathepsin K is 9.56 nM; at human cathepsin F it was 1620 nM.

`N#CC1(NC(=O)[C@@H]2CC3CC3C[C@H]2c2oc(-c3ccc(F)cn3)nc2-c2ccc(N3CCS(=O)(=O)CC3)cc2)CC1` (single isomer, unassigned) [Example 9, (1R,3R,4R,6S or 1S,3R,4R,6R)-N-(1-cyanocyclopropyl)-4-(4-(4-(1,1-dioxidothiomorpholino)phenyl)-2-(5-fluoropyridin-2-yl)oxazol-5-yl)bicyclo[4.1.0]heptane-3-carboxamide]: the IC50 on human cathepsin K is 3.54 nM; on human cathepsin F, 1180 nM.

In the case of `CC(C#N)NC(=O)[C@@H]1CCCC[C@H]1c1oc(-c2ccc(F)cc2F)nc1-c1ccc(N2CCS(=O)(=O)CC2)cc1` (single isomer, unassigned) [Example 46, (1R,2R)-N-((S or R)-1-cyanoethyl)-2-(2-(2,4-difluorophenyl)-4-(4-(1,1-dioxidothiomorpholino)phenyl)oxazol-5-yl)cyclohexanecarboxamide], the values for the IC50 on human cathepsin K and on human cathepsin F were 0.66 nM and 230 nM, respectively.

Consider `CC(C#N)NC(=O)[C@@H]1CCCC[C@H]1c1oc(-c2ccc(F)cc2)nc1-c1ccc(N2CCS(=O)(=O)CC2)cc1` (single isomer, unassigned) [Example 121, (1R,2R)-N-((R or S)-1-cyanoethyl)-2-(4-(4-(1,1-dioxidothiomorpholino)phenyl)-2-(4-fluorophenyl)oxazol-5-yl)cyclohexanecarboxamide], for which the figures for the IC50 at human cathepsin K and on human cathepsin F were 24.1 nM and at least 10000 nM, respectively.

As to `CC(C#N)NC(=O)[C@@H]1CCCC[C@H]1c1oc(-c2ccc(F)cc2)nc1-c1ccc(N2CCS(=O)(=O)CC2)cc1` (single isomer, unassigned) [Example 122, (1R,2R)-N-((S or R)-1-cyanoethyl)-2-(4-(4-(1,1-dioxidothiomorpholino)phenyl)-2-(4-fluorophenyl)oxazol-5-yl)cyclohexanecarboxamide], the figures for the IC50 on human cathepsin K and at human cathepsin F were 0.8 nM and 198 nM, respectively.

Take `CC(C)C(C#N)NC(=O)[C@@H]1CCCC[C@H]1c1oc(-c2ccc(F)cc2)nc1-c1ccc(N2CCS(=O)(=O)CC2)cc1` (single isomer, unassigned) [Example 123, (1R,2R)-N-((S or R)-1-cyano-2-methylpropyl)-2-(4-(4-(1,1-dioxidothiomorpholino)phenyl)-2-(4-fluorophenyl)oxazol-5-yl)cyclohexanecarboxamide]: the IC50 at human cathepsin K was determined as 2.13 nM; at human cathepsin F it was 472 nM.

Consider `CC(C)C(C#N)NC(=O)[C@@H]1CCCC[C@H]1c1oc(-c2ccc(F)cc2)nc1-c1ccc(N2CCS(=O)(=O)CC2)cc1` (single isomer, unassigned) [Example 124, (1R,2R)-N-((R or S)-1-cyano-2-methylpropyl)-2-(4-(4-(1,1-dioxidothiomorpholino)phenyl)-2-(4-fluorophenyl)oxazol-5-yl)cyclohexanecarboxamide], for which the IC50 on human cathepsin K was 1080 nM; on human cathepsin F, at least 10000 nM.

For the molecule `CCC(C#N)NC(=O)[C@@H]1CCCC[C@H]1c1oc(-c2ccc(F)cc2)nc1-c1ccc(N2CCS(=O)(=O)CC2)cc1` (single isomer, unassigned) [Example 125, (1R,2R)-N-((S or R)-1-cyanopropyl)-2-(4-(4-(1,1-dioxidothiomorpholino)phenyl)-2-(4-fluorophenyl)oxazol-5-yl)cyclohexanecarboxamide], the IC50 at human cathepsin K is 0.69 nM; on human cathepsin F, 104 nM.

Turning to `CCC(C#N)NC(=O)[C@@H]1CCCC[C@H]1c1oc(-c2ccc(F)cc2)nc1-c1ccc(N2CCS(=O)(=O)CC2)cc1` (single isomer, unassigned) [Example 126, (1R,2R)-N-((R or S)-1-cyanopropyl)-2-(4-(4-(1,1-dioxidothiomorpholino)phenyl)-2-(4-fluorophenyl)oxazol-5-yl)cyclohexanecarboxamide], the IC50 was 14.6 nM on human cathepsin K and 9020 nM on human cathepsin F.

In the case of `N#CC(CC(F)(F)F)NC(=O)[C@@H]1CCCC[C@H]1c1oc(-c2ccc(F)cc2)nc1-c1ccc(N2CCS(=O)(=O)CC2)cc1` (single isomer, unassigned) [Example 131, (1R,2R)-N-((R or S)-1-cyano-3,3,3-trifluoropropyl)-2-(4-(4-(1,1-dioxidothiomorpholino)phenyl)-2-(4-fluorophenyl)oxazol-5-yl)cyclohexanecarboxamide], the results for the IC50 on human cathepsin K and at human cathepsin F were 0.65 nM and 14 nM, respectively.

As to `N#CC(CC(F)(F)F)NC(=O)[C@@H]1CCCC[C@H]1c1oc(-c2ccc(F)cc2)nc1-c1ccc(N2CCS(=O)(=O)CC2)cc1` (single isomer, unassigned) [Example 132, (1R,2R)-N-((S or R)-1-cyano-3,3,3-trifluoropropyl)-2-(4-(4-(1,1-dioxidothiomorpholino)phenyl)-2-(4-fluorophenyl)oxazol-5-yl)cyclohexanecarboxamide], the IC50 amounted to 1.77 nM at human cathepsin K and 670 nM on human cathepsin F.
